Experimental data taken from PubChem BioAssay AID1963980 (Molecular Pharmacology Branch, DTP, NCI, 2024).

Tested on: 475296-252-R-J1-PDC spheroid viability
Assay: Anticancer human tumor 475296-252-R-J1-PDC patient-derived rectal carcinoma cell line growth inhibition [PI3K]
Details: spheroids with HUVEC and MSC; for IC50: curve of first compound; for viability, T/C: stronger effect = lower value
Procedure, shortened: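 Tumor cells grown as multi-cell spheroids with HUVEC endothelial cells and MSC fibroblast-like stroma were treated with targeted agents combined with inavolisib, alpelisib, duvelisib or copanlisib. Doses fell in half-log steps from near clinical Cmax, else from 10 microM. Viability was measured.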

[1] = second compound 0.0316 µM, first compound 0.0316 µM
[2] = second compound 0.0316 µM, first compound 0.1 µM
[3] = second compound 0.0316 µM, first compound 0.316 µM
[4] = second compound 0.0316 µM, first compound 1 µM
[5] = second compound 0.0316 µM, first compound 3.16 µM
[6] = second compound 0.0316 µM, first compound 10 µM
[7] = second compound 0.1 µM, first compound 0.0316 µM
[8] = second compound 0.1 µM, first compound 0.1 µM
[9] = second compound 0.1 µM, first compound 0.316 µM
[10] = second compound 0.1 µM, first compound 1 µM
[11] = second compound 0.1 µM, first compound 3.16 µM
[12] = second compound 0.1 µM, first compound 10 µM
[13] = second compound 0.316 µM, first compound 0.0316 µM
[14] = second compound 0.316 µM, first compound 0.1 µM
[15] = second compound 0.316 µM, first compound 0.316 µM
[16] = second compound 0.316 µM, first compound 1 µM
[17] = second compound 0.316 µM, first compound 3.16 µM
[18] = second compound 0.316 µM, first compound 10 µM
[19] = second compound 1 µM, first compound 0.0316 µM
[20] = second compound 1 µM, first compound 0.1 µM
[21] = second compound 1 µM, first compound 0.316 µM
[22] = second compound 1 µM, first compound 1 µM
[23] = second compound 1 µM, first compound 3.16 µM
[24] = second compound 1 µM, first compound 10 µM
[25] = second compound 3.16 µM, first compound 0.0316 µM
[26] = second compound 3.16 µM, first compound 0.1 µM
[27] = second compound 3.16 µM, first compound 0.316 µM
[28] = second compound 3.16 µM, first compound 1 µM
[29] = second compound 3.16 µM, first compound 3.16 µM
[30] = second compound 3.16 µM, first compound 10 µM
[31] = second compound 10 µM, first compound 0.0316 µM
[32] = second compound 10 µM, first compound 0.1 µM
[33] = second compound 10 µM, first compound 0.316 µM
[34] = second compound 10 µM, first compound 1 µM
[35] = second compound 10 µM, first compound 3.16 µM
[36] = second compound 10 µM, first compound 10 µM
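Note: spheroids exposed to agents for seven days before readout.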

For `CC(Cn1ccc(-c2ccc(C#N)c(Cl)c2)n1)NC(=O)c1cc(C(C)O)[nH]n1` (stereo unspecified) + CC(Nc1ncnc2nc[nH]c12)c1cc2cccc(Cl)c2c(=O)n1-c1ccccc1, the IC50 (second compound 0.0316 µM) was over 10 µM, the IC50 (second compound 0.1 µM) was over 10 µM and the IC50 (second compound 0.316 µM) was over 10 µM. It also gave an IC50 (second compound 1 µM) of over 10 µM, an IC50 (second compound 3.16 µM) of over 10 µM and an IC50 (second compound 10 µM) of over 10 µM. For the same compound, the viability, T/C [1] was 97.8%, the viability, T/C [2] was 94.9% and the viability, T/C [3] was 96.6%. For the same compound, the viability, T/C [4] was 92.1%, the viability, T/C [5] was 102% and the viability, T/C [6] was 104%. The viability, T/C [7] was 99.1%, the viability, T/C [8] was 98.5% and the viability, T/C [9] was 91.7%. It also gave a viability, T/C [10] of 89%, a viability, T/C [11] of 101% and a viability, T/C [12] of 84.1%. The viability, T/C [13] was 97%, the viability, T/C [14] was 97.8% and the viability, T/C [15] was 94.1%. The viability, T/C [16] was 99.5%, the viability, T/C [17] was 104% and the viability, T/C [18] was 89.7%. For the same compound, the viability, T/C [19] was 94.4%, the viability, T/C [20] was 94.4% and the viability, T/C [21] was 89.5%. For the same compound, the viability, T/C [22] was 98.7%, the viability, T/C [23] was 113% and the viability, T/C [24] was 90.2%. The viability, T/C [25] was 95.1%, the viability, T/C [26] was 95.8% and the viability, T/C [27] was 83.4%. For the same compound, the viability, T/C [28] was 92.2%, the viability, T/C [29] was 94.5% and the viability, T/C [30] was 96.2%. The viability, T/C [31] was 95%, the viability, T/C [32] was 99.2% and the viability, T/C [33] was 104%. For the same compound, the viability, T/C [34] was 92.3%, the viability, T/C [35] was 95.1% and the viability, T/C [36] was 91.8%.

`CC1(C)CCC(Nc2ncc(C(F)(F)F)c(-c3c[nH]c4c(P(C)(C)=O)c(C#N)ccc34)n2)CN1` (stereo unspecified) + CC(Nc1ncnc2nc[nH]c12)c1cc2cccc(Cl)c2c(=O)n1-c1ccccc1 was tested, and the IC50 (second compound 0.0316 µM) was over 10 µM, the IC50 (second compound 0.1 µM) was over 10 µM and the IC50 (second compound 0.316 µM) was over 10 µM. It also gave an IC50 (second compound 1 µM) of over 10 µM, an IC50 (second compound 3.16 µM) of over 10 µM and an IC50 (second compound 10 µM) of 9.12 µM. It also gave a viability, T/C [1] of 97.6%, a viability, T/C [2] of 93% and a viability, T/C [3] of 93.1%. For the same compound, the viability, T/C [4] was 129%, the viability, T/C [5] was 160% and the viability, T/C [6] was 64.5%. The viability, T/C [7] was 98%, the viability, T/C [8] was 91.5% and the viability, T/C [9] was 95.1%. It also gave a viability, T/C [10] of 117%, a viability, T/C [11] of 159% and a viability, T/C [12] of 52.2%. The viability, T/C [13] was 93.8%, the viability, T/C [14] was 86.8% and the viability, T/C [15] was 114%. For the same compound, the viability, T/C [16] was 120%, the viability, T/C [17] was 164% and the viability, T/C [18] was 55.7%. The viability, T/C [19] was 98.8%, the viability, T/C [20] was 92.9% and the viability, T/C [21] was 86.5%. The viability, T/C [22] was 139%, the viability, T/C [23] was 166% and the viability, T/C [24] was 54.1%. It also gave a viability, T/C [25] of 91.9%, a viability, T/C [26] of 86% and a viability, T/C [27] of 89.6%. The viability, T/C [28] was 113%, the viability, T/C [29] was 154% and the viability, T/C [30] was 53.3%. The viability, T/C [31] was 88.7%, the viability, T/C [32] was 81.6% and the viability, T/C [33] was 102%. It also gave a viability, T/C [34] of 128%, a viability, T/C [35] of 152% and a viability, T/C [36] of 44.7%.

`Cn1nccc1Nc1nccc(-c2ccn(C(CO)c3ccc(Cl)c(F)c3)c(=O)c2)n1` (stereo unspecified) + CC(Nc1ncnc2nc[nH]c12)c1cc2cccc(Cl)c2c(=O)n1-c1ccccc1 showed an IC50 (second compound 0.0316 µM) of over 10 µM, an IC50 (second compound 0.1 µM) of over 10 µM and an IC50 (second compound 0.316 µM) of over 10 µM. It also gave an IC50 (second compound 1 µM) of over 10 µM, an IC50 (second compound 3.16 µM) of over 10 µM and an IC50 (second compound 10 µM) of over 10 µM. For the same compound, the viability, T/C [1] was 94.3%, the viability, T/C [2] was 102% and the viability, T/C [3] was 89.8%. For the same compound, the viability, T/C [4] was 92.2%, the viability, T/C [5] was 92.9% and the viability, T/C [6] was 70.7%. The viability, T/C [7] was 90.2%, the viability, T/C [8] was 91.3% and the viability, T/C [9] was 96.1%. For the same compound, the viability, T/C [10] was 86.9%, the viability, T/C [11] was 80.7% and the viability, T/C [12] was 77.4%. For the same compound, the viability, T/C [13] was 93.4%, the viability, T/C [14] was 95.2% and the viability, T/C [15] was 101%. The viability, T/C [16] was 92.8%, the viability, T/C [17] was 86.9% and the viability, T/C [18] was 65.5%. The viability, T/C [19] was 97.8%, the viability, T/C [20] was 97.7% and the viability, T/C [21] was 98.5%. It also gave a viability, T/C [22] of 89.2%, a viability, T/C [23] of 93.6% and a viability, T/C [24] of 59.1%. For the same compound, the viability, T/C [25] was 97.4%, the viability, T/C [26] was 96.8% and the viability, T/C [27] was 89.2%. It also gave a viability, T/C [28] of 80.4%, a viability, T/C [29] of 82.2% and a viability, T/C [30] of 59.1%. The viability, T/C [31] was 90.9%, the viability, T/C [32] was 80.6% and the viability, T/C [33] was 91.2%. For the same compound, the viability, T/C [34] was 83.6%, the viability, T/C [35] was 76.4% and the viability, T/C [36] was 54.9%.
